Tests used:
Format in all cases: in vivo, rat
diabetic rats = test: Systolic blood pressure (tail cuff) in streptozotocin-diabetic rats; details: treated diabetic rats
Experimental: (§1) In the determination, the following groups of rats were employed, each group consisting of ten rats.
Group 3 Diabetic rats treated with cyclopeptide compound
Normal rats were commercially available laboratory rats identified as CD rats.
(§2) Diabetic rats were CD rats in which diabetes was induced by the injection of streptozotocin into the femoral vein at a dose of 60 mg/kg. Hyperglycemia was confirmed by measuring glucose levels in blood obtained by orbital bleeding. (A standard medical technique for obtaining blood form the orbital sinus is described in "Laboratory Animal Medicine" edited by J. G. Fox et al., Academic Press, Inc., Orlando, Fla., 1984.)
Dosing was initiated with cyclopeptide compound four days after injection of streptozotocin to induce diabetes in the diabetic rats. […]
(§3) The rats were housed two to a box and fed standard rat food and water ad libitum. Blood pressure was measured indirectly with a photoelectric system with a tail cuff containing a built in sensor (Harvard Biosciences,Cambridge, MA). The instrument was calibrated on each day of use with a sphygmomanometer. Six to eight recordings were made for each rat.
Blood pressure measurements were initated 8 days following injection of streptozotocin (4 days after start of treatment).
FIG. 1 is a graph in which the blood pressures of normal, diabetic and treated diabetic rats are plotted against a period of time in days. (Each point is the mean of 7 to 10 rats±standard deviation.)

[1] = tested on: spontaneously hypertensive (SH) rats; test: Systolic blood pressure (tail cuff) in spontaneously hypertensive rats; details: treated SH rats
Experimental: as §1
Group 4 Spontaneously hypertensive (SH) rats
Group 5 Spontaneously hypertensive rats treated with cyclopeptide compound
SH rats were commercially available spontaneously hypertensive rats.
(§4) Dosing was initiated with cyclopeptide compound four days after injection of streptozotocin to induce diabetes in the diabetic rats. Dosing was carried out by administering the cyclopeptide compound in the drinking water at a dose of 50 μg/rat/day.
as §3
The blood pressure measurements of treated and untreated spontaneously hypertensive rats compared with normal rats may be seen in FIG. 2.
FIG. 2 is a graph in which the systolic blood pressure of normal, spontaneously hypertensive and treated spontaneously hypertensive rats are plotted against a period of time in days.

[2] = Serum glucose level of treated rats; details: for Serum Glucose (after 27 days): after 27 days of treatment, mean ± std. dev.
Experimental: as §1, §2, §4, §3
(§5) At the beginning of the experiment, the mean weights of the CD rats were 160 grams and the SH rats were 220 grams. The body weights after 38 days may be seen in Table 1. The serum glucose level, measured after 27 days of treatment also may be seen in Table 1.

[3] = Body weight of treated rats; details: for Body Weight (after 38 days): mean ± std. dev.
Experimental: as §1, §2, §4, §3, §5

[4] = diabetic rat or spontaneously hypertensive rat

CC(C)[C@@H]1NC(=O)[C@H](CCCCN)NC(=O)[C@@H](Cc2c[nH]c3ccccc23)NC(=O)[C@H](Cc2ccc(O)cc2)NC(=O)[C@H](C)N(C)C(=O)[C@H](Cc2ccccc2)NC1=O [Compound IA, cyclo-(N-MeAla-Tyr-(D)Trp-Lys-Val-Phe)]
reduction in blood pressure (diabetic rats; 33rd day of treatment, 100 μg/rat/day from 21st day, P=<0.005): 18%
reduction in blood pressure (diabetic rats; 38th day of treatment, 100 μg/rat/day from 21st day, P=<0.001): 21%
reduction in blood pressure (diabetic rats; after 17 days of treatment, 50 μg/rat/day in drinking water, P=<0.05): 14%
reduction in systolic blood pressure ([1]; 10th day of treatment, P=<0.02): 11%
inhibition of blood pressure after the 10th day ([1]; after 10th day, even after increasing dose to 200 μg/rat/day on 40th day): no further inhibition was evident
Serum Glucose (after 27 days) ([2]; Diabetic CD rats (streptozotocin) + Compound IA in drinking water): 352 ± 52 mg %
Serum Glucose (after 27 days) ([2]; SH rats + Compound IA in drinking water, P = <0.05 relative to normal CD): 90 ± 10 mg %
effect on serum glucose level (in words) [2, 4]: no significant effect
Body Weight (after 38 days) ([3]; Diabetic CD rats (streptozotocin) + Compound IA in drinking water, 50 μg/rat/day, doubled to 100 μg/rat/day on 21st day): 281 ± 63 gms
Body Weight (after 38 days) ([3]; SH rats + Compound IA in drinking water): 285 ± 17 gms
effect on body weight (in words) [3, 4]: no significant effect

From patent publication US4798821A, “Antihypertensive therapy for diabetics” (Merck & Co., Inc., priority 1987, dated 1989)
